{"source": "patent US10723716B2", "about": "“Alpha-helix mimetics as modulators of Abeta self-assembly” (New York University, priority 2016, dated 2020)", "key": {"Aβ42 [1]": {"biological_target": "T1, Aβ42 (Homo sapiens, UniProt P05067)", "T1 construct": "Cleavage of APP results in several Aβ isoforms; The predominant species are Aβ42 and Aβ40; purchased Anaspec (Fremont, Calif., USA)", "T1 sequence (P05067 672-713 limits assumed)": "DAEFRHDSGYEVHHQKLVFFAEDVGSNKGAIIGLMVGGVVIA", "test": "Transmission electron microscopy (TEM) of Aβ42", "format": "biochemical", "conditions": "for Aβ42 oligomers seen by TEM after addition to preformed oligomers: 5 μM Aβ42, compound added to preformed oligomers (2 h), equimolar", "experimental": "Aβ42 (5 μM) was incubated in phosphate buffer in the absence and presence of the compounds of the invention at various time intervals and stoichiometric ratios. Aliquots of these samples were then applied to glow-discharged carbon-coated 300-mesh copper grids for 2 min and dried. Grids were negatively stained with uranyl acetate (2%, w/v) and dried. Micrographs of grids were examined on a Phillips CM12 Cryoelectron Microscope equipped with Gatan 4k×2.7k CCD camera at 120-kV accelerating voltage."}, "Aβ42 [2]": {"biological_target": "T1, Aβ42", "test": "Dot blot assay with A11 antibody", "format": "biochemical", "conditions": "Aβ42, equimolar ratio, whole time course", "experimental": "Samples of Aβ42 at concentrations from 2 μM to 5 μM were incubated at various time intervals in the absence and presence of the compounds of the invention at an equimolar ratio (see FIG. 4j). The samples were then applied to a nitrocellulose membrane and dried at room temperature for 1 h or overnight at 4° C. The membranes were then blocked with 5% nonfat milk in Tris buffer (20 mM Tris, pH 7.4) for 1 h at room temperature. The nitrocellulose membranes were then washed (×3) with 20 mM Tris, pH 7.4 supplemented with 0.01% Tween-20 (TBST) and incubated with polyclonal A11 antibody (1/1000 dilution in 5% nonfat milk in TBST, Life Technologies Corp., Grand Island, N.Y., USA) overnight at 4° C. Samples were then washed (×3) with TBST buffer and incubated with horseradish peroxidase (HRP) conjugated anti-rabbit IgG (1/500 dilution in 5% nonfat free milk in TBST) at r.t. for 1 h. The dot blots were then washed with TBST buffer (×3), developed using the ECL reagent kit (Amersham, Piscataway, N.J., USA), and imaged using a Typhoon FLA 9000 instrument (GE Healthcare Life Sciences, Pittsburgh, Pa., USA) using chemiluminescence settings. A similar experiment was repeated using 6E10 antibody ( 1/1000 dilution in 5% nonfat free milk in TBST, Biolegend, San Diego, Calif., USA) for comparison."}, "Neuro-2a cells": {"test_system": "Neuro-2a cells", "test": "Effect of compound alone on Neuro-2a cell viability", "format": "cell-based, mouse", "conditions": "for toxicity of compound alone to Neuro-2a cells: matched cytotoxic experimental conditions, no Aβ42", "experimental": "To investigate the toxic effect of the peptide alone on cell viability, solution (B) without the oligopyridylamide compound was mixed with solution (A), while the effect of the oligopyridylamide compound alone was determined by adding solution (A) without peptide to solution (B). The effect of oligopyridylamides on seed-catalyzed Aβ42 aggregation was probed by preparing an additional solution (C) containing 0.5 μM seeds. The volume contributed by solution (C) was taken into account in preparing solution (B). Solution (C) was mixed with solution (B), and the resulting mixture was then added to solution (A) shortly before addition to the wells. To study the effect of oligopyridylamides on the oligomeric states of Aβ42, solution (A) was mixed with solution (B) without inhibitor and incubated at room temperature for 1, 2 or 3 h. Subsequently, 50 μM oligopyridylamides was added to the mixture, which was then immediately added to the cells. […] The MTS reagent was incubated for 2.5 h at 37° C., and absorbance of the soluble formazan product (λ=490 nm) of MTS reduction was measured on a Synergy H1MF Multi-Mode microplate-reader (BioTek, Winooski, Vt., USA), with a reference wavelength of 650 nm to subtract the background. Wells treated with a solution containing serum-free DMEM, 200 μM NaOH, 0.1×PBS and 0.5% (v/v) DMSO served as control. MTS reduction was determined from the ratio of the absorbance of the treated wells to the control wells. Each data point represents an average of four independent quadruplet-well trials."}}}
{"molecule": "COC(=O)c1ccc(NC(=O)c2ccc(NC(=O)c3ccc([N+](=O)[O-])c(OCc4ccccc4)n3)c(OCCCN)n2)c(OCCCN)n1", "note": "[ADH-41]", "values": [{"measurement": "fibers of Aβ42 seen by TEM", "setting": "Aβ42 [1]; 5 μM Aβ42, 1:0.1 (Aβ42:ADH-41), 24 h", "result": "sparse population of fibers"}, {"measurement": "oligomers/fibers of Aβ42 seen by TEM", "setting": "Aβ42 [1]; 5 μM Aβ42, 1:1 or 1:0.5 (Aβ42:ADH-41), even after 2 days", "result": "no formation of oligomers/fibers"}, {"measurement": "Aβ42 oligomers seen by TEM after addition to preformed oligomers", "setting": "Aβ42 [1]", "result": "No formation of Aβ42 oligomers"}, {"measurement": "elongated fibers seen by TEM in seed-catalyzed Aβ42 aggregation", "setting": "Aβ42 [1]; 20 μM Aβ42 + seeds, equimolar ratio, 24 h", "result": "no elongated fibers were observed"}, {"measurement": "A11 signal intensity of the dots", "setting": "Aβ42 [2]", "result": "significantly weaker"}, {"measurement": "cell viability, compound alone", "setting": "Neuro-2a cells; 4 μM ADH-41 + 1 μM ADH-41F, N2a cells, 24 h", "result": 98, "unit": "%"}, {"measurement": "toxicity of compound alone to Neuro-2a cells", "setting": "Neuro-2a cells", "result": "not toxic"}]}
{"molecule": "COC(=O)c1ccc(NC(=O)c2ccc(NC(=O)c3ccc(NC(=O)c4ccc([N+](=O)[O-])c(OCC(C)C)n4)c(OCc4ccccc4)n3)c(OCC(=O)O)n2)c(OCC(=O)O)n1", "note": "[ADH-31]", "values": [{"measurement": "Aβ42 oligomers seen by TEM after addition to preformed oligomers", "setting": "Aβ42 [1]", "result": "No formation of Aβ42 oligomers"}, {"measurement": "fibers of Aβ42 seen by TEM", "setting": "Aβ42 [1]; 5 μM Aβ42, equimolar ratio, after 12 h", "result": "no fibers were recorded"}, {"measurement": "A11 signal intensity of the dots", "setting": "Aβ42 [2]", "result": "weak intensities"}, {"measurement": "toxicity of compound alone to Neuro-2a cells", "setting": "Neuro-2a cells", "result": "not toxic"}]}
